{"source": "patent US10670605B2", "about": "“Cysteine reactive probes and uses thereof” (The Scripps Research Institute, priority 2015, dated 2020)", "experiment_in_all_cases": "isoTOP-ABPP of compound-treated primary human T cells", "assay_type_in_all_cases": "cell-based", "key": {"[1]": {"target": "Cys residues in primary human T cells (Homo sapiens, UniProt O00170)", "sequence (O00170 whole entry)": "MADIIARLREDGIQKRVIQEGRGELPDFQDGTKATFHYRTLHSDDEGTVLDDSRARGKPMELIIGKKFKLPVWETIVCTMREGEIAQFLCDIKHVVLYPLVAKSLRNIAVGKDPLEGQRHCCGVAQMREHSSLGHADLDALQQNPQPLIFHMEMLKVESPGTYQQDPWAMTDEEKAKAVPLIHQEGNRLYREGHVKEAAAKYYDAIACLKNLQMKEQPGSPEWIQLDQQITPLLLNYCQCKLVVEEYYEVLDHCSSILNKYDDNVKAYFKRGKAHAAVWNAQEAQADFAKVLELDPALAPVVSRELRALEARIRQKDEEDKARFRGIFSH", "conditions": "AIP C122 (O00170)"}, "[2]": {"target": "T1, Cys residues in primary human T cells (Homo sapiens, UniProt Q02556)", "T1 sequence (Q02556 1-426)": "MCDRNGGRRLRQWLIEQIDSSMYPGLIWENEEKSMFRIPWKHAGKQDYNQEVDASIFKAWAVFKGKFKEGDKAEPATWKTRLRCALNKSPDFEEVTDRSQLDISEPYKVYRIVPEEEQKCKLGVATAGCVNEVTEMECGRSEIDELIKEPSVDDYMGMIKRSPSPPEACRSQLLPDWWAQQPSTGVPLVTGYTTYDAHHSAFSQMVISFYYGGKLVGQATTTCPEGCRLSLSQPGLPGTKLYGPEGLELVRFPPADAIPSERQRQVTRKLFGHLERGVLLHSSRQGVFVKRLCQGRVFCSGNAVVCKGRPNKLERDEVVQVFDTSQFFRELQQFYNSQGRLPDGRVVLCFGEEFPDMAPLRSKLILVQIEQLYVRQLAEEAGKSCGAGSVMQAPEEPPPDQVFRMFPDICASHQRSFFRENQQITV", "conditions": "IRF8 C306 (Q02556)"}, "[3]": {"target": "Cys residues in primary human T cells (Homo sapiens, UniProt Q8N0Z8)", "sequence (Q8N0Z8 whole entry)": "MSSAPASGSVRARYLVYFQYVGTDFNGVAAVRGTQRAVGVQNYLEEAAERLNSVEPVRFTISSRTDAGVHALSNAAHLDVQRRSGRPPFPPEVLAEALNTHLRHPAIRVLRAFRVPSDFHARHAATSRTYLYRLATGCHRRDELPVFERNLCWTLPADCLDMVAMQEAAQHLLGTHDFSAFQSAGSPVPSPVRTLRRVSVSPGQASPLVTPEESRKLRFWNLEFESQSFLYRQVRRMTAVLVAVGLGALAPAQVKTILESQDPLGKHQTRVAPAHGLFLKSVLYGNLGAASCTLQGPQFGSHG", "conditions": "PUSL1 C292 (Q8N0Z8); DMF 50 μM 4h"}, "[4]": {"target": "Cys residues in primary human T cells (Homo sapiens, UniProt Q8N2G8)", "sequence (Q8N2G8 18-530)": "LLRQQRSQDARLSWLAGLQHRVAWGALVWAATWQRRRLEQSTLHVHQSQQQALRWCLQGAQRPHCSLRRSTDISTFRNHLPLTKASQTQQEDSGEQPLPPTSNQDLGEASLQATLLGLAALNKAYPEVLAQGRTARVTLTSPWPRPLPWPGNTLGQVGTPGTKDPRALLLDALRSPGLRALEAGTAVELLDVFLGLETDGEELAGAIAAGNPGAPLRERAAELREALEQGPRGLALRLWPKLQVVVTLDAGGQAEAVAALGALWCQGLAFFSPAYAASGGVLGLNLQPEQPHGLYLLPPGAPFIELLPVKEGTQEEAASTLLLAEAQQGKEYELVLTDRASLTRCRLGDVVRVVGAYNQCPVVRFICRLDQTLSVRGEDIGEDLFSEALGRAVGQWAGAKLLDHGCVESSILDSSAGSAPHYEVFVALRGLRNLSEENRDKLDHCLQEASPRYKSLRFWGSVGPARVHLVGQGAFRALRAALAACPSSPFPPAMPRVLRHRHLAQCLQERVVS", "conditions": "GHDC C502 (Q8N2G8)"}, "[5]": {"target": "T2, Cys residues in primary human T cells (Homo sapiens, UniProt Q96GW9)", "T2 sequence (Q96GW9 30-593)": "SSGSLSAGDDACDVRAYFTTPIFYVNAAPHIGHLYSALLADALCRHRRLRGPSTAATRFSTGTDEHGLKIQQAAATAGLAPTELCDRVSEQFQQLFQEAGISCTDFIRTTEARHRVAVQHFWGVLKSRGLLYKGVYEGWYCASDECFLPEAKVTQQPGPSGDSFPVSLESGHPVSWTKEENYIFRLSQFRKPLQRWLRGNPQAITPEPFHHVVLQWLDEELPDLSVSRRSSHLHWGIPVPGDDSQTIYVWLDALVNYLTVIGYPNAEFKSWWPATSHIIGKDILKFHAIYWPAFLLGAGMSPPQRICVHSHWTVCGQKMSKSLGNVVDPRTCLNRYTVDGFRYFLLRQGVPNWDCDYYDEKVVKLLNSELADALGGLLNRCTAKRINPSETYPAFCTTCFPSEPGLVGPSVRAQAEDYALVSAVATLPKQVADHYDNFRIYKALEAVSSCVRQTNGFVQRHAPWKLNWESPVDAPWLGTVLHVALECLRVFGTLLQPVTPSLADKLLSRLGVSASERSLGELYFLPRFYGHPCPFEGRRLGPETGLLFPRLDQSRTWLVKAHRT", "conditions": "MARS2 C425 (Q96GW9)"}, "[6]": {"target": "T3, Cys residues in primary human T cells (Homo sapiens, UniProt Q96I15)", "T3 sequence (Q96I15 1-445)": "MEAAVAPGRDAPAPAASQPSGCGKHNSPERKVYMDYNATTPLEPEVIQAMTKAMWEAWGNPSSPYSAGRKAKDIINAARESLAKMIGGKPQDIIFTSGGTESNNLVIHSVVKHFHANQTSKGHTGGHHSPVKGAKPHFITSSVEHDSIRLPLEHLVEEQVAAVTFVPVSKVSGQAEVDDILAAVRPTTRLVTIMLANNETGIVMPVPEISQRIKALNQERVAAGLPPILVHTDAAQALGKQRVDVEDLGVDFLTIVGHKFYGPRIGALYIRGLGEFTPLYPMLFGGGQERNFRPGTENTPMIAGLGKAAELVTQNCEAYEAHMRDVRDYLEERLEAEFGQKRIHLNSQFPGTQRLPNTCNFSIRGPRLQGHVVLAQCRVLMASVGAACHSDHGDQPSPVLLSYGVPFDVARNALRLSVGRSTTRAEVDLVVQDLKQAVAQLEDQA", "conditions": "SCLY C22 (Q96115)"}, "[7]": {"target": "T4, Cys residues in primary human T cells (Homo sapiens, UniProt Q9Y4W2)", "T4 sequence (Q9Y4W2 1-734)": "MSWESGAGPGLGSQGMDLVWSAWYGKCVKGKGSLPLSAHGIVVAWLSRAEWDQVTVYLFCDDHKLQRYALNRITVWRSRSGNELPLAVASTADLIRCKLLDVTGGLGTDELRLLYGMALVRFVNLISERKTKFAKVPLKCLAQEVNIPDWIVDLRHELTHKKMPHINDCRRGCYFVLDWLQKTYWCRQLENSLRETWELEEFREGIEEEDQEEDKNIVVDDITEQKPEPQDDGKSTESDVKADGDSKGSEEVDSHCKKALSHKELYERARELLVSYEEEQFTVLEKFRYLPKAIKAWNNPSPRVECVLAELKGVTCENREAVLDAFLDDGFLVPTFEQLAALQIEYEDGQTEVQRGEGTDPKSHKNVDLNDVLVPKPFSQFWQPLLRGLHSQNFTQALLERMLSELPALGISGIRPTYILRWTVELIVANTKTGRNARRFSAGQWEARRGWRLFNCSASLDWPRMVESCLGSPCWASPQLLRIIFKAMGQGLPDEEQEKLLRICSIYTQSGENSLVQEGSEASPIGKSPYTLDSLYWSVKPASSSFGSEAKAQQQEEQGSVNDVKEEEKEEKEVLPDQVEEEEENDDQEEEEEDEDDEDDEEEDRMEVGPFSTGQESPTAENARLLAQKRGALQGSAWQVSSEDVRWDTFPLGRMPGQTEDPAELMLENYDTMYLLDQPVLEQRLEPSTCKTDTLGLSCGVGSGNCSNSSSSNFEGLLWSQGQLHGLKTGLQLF", "conditions": "LAS1L C456 (Q9Y4W2)"}}, "note": "Structures can show the parent of a compound that is named as a salt.", "data": [{"smiles": "COC(=O)/C=C/C(=O)OC", "note": "[DMF, dimethyl fumarate]", "values": [{"measurement": "R value (DMSO/DMF)", "setting": "[1]; DMF 50 μM 2h", "result": 3.05}, {"measurement": "R value (DMSO/DMF)", "setting": "[1]; DMF 50 μM 4h", "result": 6.14}, {"measurement": "R value (DMSO/DMF)", "setting": "[2]; DMF 10 μM 4h", "result": 1.9}, {"measurement": "R value (DMSO/DMF)", "setting": "[2]; DMF 50 μM 1h", "result": 1.66}, {"measurement": "R value (DMSO/DMF)", "setting": "[2]; DMF 50 μM 4h", "result": 5.32}, {"measurement": "R value (DMSO/DMF)", "setting": "[3]", "result": 4.68}, {"measurement": "R value (DMSO/DMF)", "setting": "[4]; DMF 50 μM 1h", "result": 4.23}, {"measurement": "R value (DMSO/DMF)", "setting": "[4]; DMF 50 μM 2h", "result": 20}, {"measurement": "R value (DMSO/DMF)", "setting": "[5]; DMF 10 μM 4h", "result": 1.84}, {"measurement": "R value (DMSO/DMF)", "setting": "[5]; DMF 25 μM 4h", "result": 2.86}, {"measurement": "R value (DMSO/DMF)", "setting": "[5]; DMF 50 μM 1h", "result": 2.23}, {"measurement": "R value (DMSO/DMF)", "setting": "[5]; DMF 50 μM 2h", "result": 4.16}, {"measurement": "R value (DMSO/DMF)", "setting": "[5]; DMF 50 μM 4h", "result": 5.3}, {"measurement": "R value (DMSO/DMF)", "setting": "[6]; DMF 10 μM 4h", "result": 1.31}, {"measurement": "R value (DMSO/DMF)", "setting": "[6]; DMF 25 μM 4h", "result": 2.16}, {"measurement": "R value (DMSO/DMF)", "setting": "[6]; DMF 50 μM 1h", "result": 1.9}, {"measurement": "R value (DMSO/DMF)", "setting": "[6]; DMF 50 μM 2h", "result": 2.16}, {"measurement": "R value (DMSO/DMF)", "setting": "[6]; DMF 50 μM 4h", "result": 4.04}, {"measurement": "R value (DMSO/DMF)", "setting": "[7]; DMF 10 μM 4h", "result": 1.29}, {"measurement": "R value (DMSO/DMF)", "setting": "[7]; DMF 50 μM 1h", "result": 1.8}, {"measurement": "R value (DMSO/DMF)", "setting": "[7]; DMF 50 μM 2h", "result": 3.42}, {"measurement": "R value (DMSO/DMF)", "setting": "[7]; DMF 50 μM 4h", "result": 5.61}]}]}
